Experimental data taken from patent US12441775B2, “BCL-W polypeptides and mimetics for treating or preventing chemotherapy-induced peripheral neuropathy and hearing loss” (Dana-Farber Cancer Institute, Inc., priority 2016, dated 2025).

How the values were obtained:
[1] = tested on: axons of E15 DRG sensory neurons; test: Axonal degeneration assay in compartmented chamber cultures (degeneration index); type: cell-based, rat; conditions: for axon degeneration (axonal fragmentation, degeneration index): 24 hours
Experimental: Cell culture. Compartmented chamber (Campenot) cultures were prepared as described (see, e.g., Fenstermacher et al., Springer Protocols: Neuromethods, 103:105-124 (2015)), with modifications. Briefly, DRGs from embryonic day 15 (E15) rats of either sex were dissected and trypsinized. DRGs (1.2×10^5 cells) were plated in the center compartment of a Teflon divider (Camp10, Tyler Research; Campenot, 1982) affixed to a p35 culture dish coated with growth factor reduced Matrigel basement membrane (BD Biosciences) 1:45 in DMEM. Cultures were maintained in media consisting of Neurobasal (Invitrogen) with 2% B27 supplement (Invitrogen), 1% penicillin-streptomycin, 1% GlutaMAX (Life Technologies), 0.08% glucose, and 0.3 μM cytosine arabinoside (AraC) at 37° C., 7.5% CO2; BDNF+NGF (PeproTech) were added to the cell body compartment at a concentration of 10 ng/ml and to the axon compartment at a concentration of 100 ng/ml for 2d. On day 3, media was replaced and the AraC was omitted. On day 5, neurotrophins were removed from the cell body compartment and reduced to 1 ng/ml in the axon compartments for 3-5 days. […] For calpain inhibition experiments, 20 μM calpain inhibitor III (VWR) and paclitaxel were added simultaneously to distal axon compartment.
Axonal degeneration assay. Compartmented chamber cultures were fixed at room temperature with 4% PFA diluted 1:2 in media for 10 min, then undiluted 4% PFA for an additional 20 min. Cultures were permeabilized with 0.1% TritonX-100 for 10 min, blocked in 3% BSA and 0.1% Triton X-100 for 1 hour at room temperature, and incubated with mouse anti-Tuj1 (1:400; clone Tuj1; Covance) overnight at 4° C. Cultures were then incubated with goat anti-mouse AlexaFluor (1:1000; Invitrogen) for 1 hour at room temperature and counterstained with DAPI. Images of distal axon tips were obtained using a 40× air objective, and axonal degeneration was quantified as a degeneration index, as previously described (Cosker et al., Neuroscience, 33:5195-5207 (2013)). Apoptosis analysis was carried out on the same cultures by taking images in the cell body compartment and counting total and condensed nuclei in NIH ImageJ software by an observer blind to condition.
Protein and peptide introduction. Recombinant His-tagged Bclw, Bcl2, and BclxL proteins (R&D Systems) or control β-galactosidase protein were introduced into cell bodies or axons of compartmented chamber cultures as described (e.g., Cosker et al., Nature Neuroscience, 19:690-696 (2016)). Briefly, 1 μg/μ1 protein was introduced into cultures using 2 μl Chariot reagent (Active Motif). To confirm expression of His-tagged proteins, cell bodies and axons were lysed in nonionic detergent, and protein lysates were separated as above and blotted with the following antibodies: anti-His (1:1000; Novagen) and anti-pan-actin (1:1000; Cell Signaling Technology). FITC-tagged SAHB peptides (BH4-Bclw, BH4-Bcl2, and BH4-BclxL; stock solutions 1 mM in DMSO) were introduced into cell bodies or axons using 350 ng peptide and 2 μl of Chariot reagent diluted 1:10 in water. Control was no peptide with 2 μl of 1:10 diluted Chariot. To confirm peptide expression, cultures were processed for axonal degeneration assay as above, and FITC immunofluorescence was examined with a 40× air objective. Paclitaxel was added to cultures 1 hour after protein or peptide transfection.

bclw+/+ and bclw−/− mice = test: Noxious thermal sensation threshold, 50° C. hot-plate; type: in vivo, mouse; conditions: paclitaxel 4 mg/kg every other day for 8 days
Experimental: Paclitaxel treatment and behavioral testing. 2 month old age-matched bclw−/− and bclw+/+ mice (17-30 g) of either sex were injected intraperitoneally (IP) with 4 mg/kg paclitaxel (Bristol-Myers Squibb) every other day for 8 days (4 total injections). Paclitaxel was prepared as 1 part 6 mg/ml paclitaxel stock solution diluted in vehicle (1:1 v/v Cremophor EL [EMD Millipore] and dehydrated ethanol) and 2 parts sterile saline and injected at 10 μl/g. Control mice were injected with 1 part vehicle and 2 parts saline. […] For three days prior to the baseline testing, mice were weighed, trained on an automated RotaRod apparatus (4 rpm for 1 min without falling), and habituated in von Frey cages. The next two days, baseline behavioral performance was assessed and averaged. The first paclitaxel injection was given three days later, and mice were weighed and behaviorally tested 10 days after the final injection. To assay motor function, mice were placed on the RotaRod with a ramp of 4-40 rpm and 0.4 rpm/sec acceleration, and latency to fall was measured. […] Withdrawal threshold was determined to be the applied force at which the animal withdrew the stimulated paw on at least 2 of 10 applications. […] Mouse behavior was assessed by an experimenter blind to genotype and condition.

E15 DRG sensory neurons = test: Apoptosis analysis (condensed/total nuclei) in cell body compartment; type: cell-based, rat; conditions: paclitaxel to either subcellular compartment
Experimental: Cell culture. Compartmented chamber (Campenot) cultures were prepared as described (see, e.g., Fenstermacher et al., Springer Protocols: Neuromethods, 103:105-124 (2015)), with modifications. Briefly, DRGs from embryonic day 15 (E15) rats of either sex were dissected and trypsinized. DRGs (1.2×10^5 cells) were plated in the center compartment of a Teflon divider (Camp10, Tyler Research; Campenot, 1982) affixed to a p35 culture dish coated with growth factor reduced Matrigel basement membrane (BD Biosciences) 1:45 in DMEM. Cultures were maintained in media consisting of Neurobasal (Invitrogen) with 2% B27 supplement (Invitrogen), 1% penicillin-streptomycin, 1% GlutaMAX (Life Technologies), 0.08% glucose, and 0.3 μM cytosine arabinoside (AraC) at 37° C., 7.5% CO2; BDNF+NGF (PeproTech) were added to the cell body compartment at a concentration of 10 ng/ml and to the axon compartment at a concentration of 100 ng/ml for 2d. On day 3, media was replaced and the AraC was omitted. On day 5, neurotrophins were removed from the cell body compartment and reduced to 1 ng/ml in the axon compartments for 3-5 days. […]
Axonal degeneration assay. […] Images of distal axon tips were obtained using a 40× air objective, and axonal degeneration was quantified as a degeneration index, as previously described (Cosker et al., Neuroscience, 33:5195-5207 (2013)). […]

`CC(=O)O[C@H]1C(=O)[C@@]2(C)[C@H]([C@H](OC(=O)c3ccccc3)[C@]3(O)C[C@H](OC(=O)[C@H](O)[C@@H](NC(=O)c4ccccc4)c4ccccc4)C(C)=C1C3(C)C)[C@]1(OC(C)=O)CO[C@@H]1C[C@@H]2O` [paclitaxel] was tested, and the “axon degeneration (axonal fragmentation, degeneration index)” value ([1]; paclitaxel 30 nM added to cell body compartment) was “no effect”, the “axon degeneration (axonal fragmentation, degeneration index)” value ([1]; paclitaxel 30 nM added to distal axon compartment) was “increase axon degeneration” and the axonal degeneration ([1]; paclitaxel after shRNA knockdown of Bclw) was “further increased axonal degeneration”. The “thermal pain sensitivity (hot-plate)” value (bclw+/+ and bclw−/− mice; bclw+/+ mice) was “mild thermal hyperalgesia”, the “thermal pain sensitivity (hot-plate)” value (bclw+/+ and bclw−/− mice; bclw−/− mice) was “more severe thermal pain sensitivity” and the “cell body apoptosis assessed by nuclear condensation” value (E15 DRG sensory neurons) was “did not induce cell body apoptosis”.
